Data on 20 compounds can be found in patent US11897898B2, “Pyridine macrocycle compounds as ASK1 inhibiting agents” (BIOGEN MA INC., priority 2018, dated 2024).

For one assay, the target named is T1, ASK1/MAP3K5 (Homo sapiens, UniProt Q99683).
T1 construct: purchased Reaction Biology Corp. (Malvern, Pa.)
T1 sequence (Q99683 1-1374): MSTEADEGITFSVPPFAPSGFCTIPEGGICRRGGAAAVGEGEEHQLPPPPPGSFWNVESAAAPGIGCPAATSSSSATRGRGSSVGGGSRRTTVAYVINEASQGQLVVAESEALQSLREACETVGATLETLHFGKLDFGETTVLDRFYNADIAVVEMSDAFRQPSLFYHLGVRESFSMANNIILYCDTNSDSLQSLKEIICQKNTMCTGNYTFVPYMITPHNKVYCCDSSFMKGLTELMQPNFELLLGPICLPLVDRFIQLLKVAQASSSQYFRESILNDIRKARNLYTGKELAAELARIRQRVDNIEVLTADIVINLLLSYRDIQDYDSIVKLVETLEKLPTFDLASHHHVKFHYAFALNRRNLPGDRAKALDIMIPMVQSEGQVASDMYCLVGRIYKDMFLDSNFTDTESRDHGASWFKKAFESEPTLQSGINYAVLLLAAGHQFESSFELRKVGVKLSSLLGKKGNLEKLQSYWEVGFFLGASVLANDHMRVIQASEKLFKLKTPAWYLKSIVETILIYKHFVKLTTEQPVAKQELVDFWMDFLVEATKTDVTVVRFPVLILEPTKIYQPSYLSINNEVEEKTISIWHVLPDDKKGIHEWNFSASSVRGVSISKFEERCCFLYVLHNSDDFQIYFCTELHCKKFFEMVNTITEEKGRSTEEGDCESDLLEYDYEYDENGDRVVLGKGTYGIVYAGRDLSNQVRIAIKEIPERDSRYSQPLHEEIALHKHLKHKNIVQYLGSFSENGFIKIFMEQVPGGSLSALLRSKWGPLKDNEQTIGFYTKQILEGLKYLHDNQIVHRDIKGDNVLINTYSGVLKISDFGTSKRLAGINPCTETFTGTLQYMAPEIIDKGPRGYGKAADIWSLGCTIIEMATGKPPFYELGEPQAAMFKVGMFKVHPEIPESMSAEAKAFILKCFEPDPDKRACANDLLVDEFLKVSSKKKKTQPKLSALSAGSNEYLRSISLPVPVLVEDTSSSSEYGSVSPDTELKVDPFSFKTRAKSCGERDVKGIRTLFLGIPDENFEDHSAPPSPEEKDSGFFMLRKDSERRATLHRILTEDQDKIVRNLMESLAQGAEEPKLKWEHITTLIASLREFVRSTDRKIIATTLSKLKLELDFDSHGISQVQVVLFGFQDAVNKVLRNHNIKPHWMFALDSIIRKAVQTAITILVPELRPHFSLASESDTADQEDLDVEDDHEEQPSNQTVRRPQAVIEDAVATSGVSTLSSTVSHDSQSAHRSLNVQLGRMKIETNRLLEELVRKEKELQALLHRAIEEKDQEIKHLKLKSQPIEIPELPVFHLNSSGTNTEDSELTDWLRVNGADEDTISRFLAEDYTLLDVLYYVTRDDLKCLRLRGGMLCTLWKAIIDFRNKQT
In words: ASK1 enzyme assay (ASK1/MAP3K5 assay by Reaction Biology Corp., 33P-ATP filter-binding). The assay is classed as biochemical. As to conditions: 20 μM myelin basic protein and 10 μM ATP. As to the method:
The protein kinase inhibitory activity of the compounds described herein were tested using the ASK1/MAP3K5 assay by Reaction Biology Corp. (Malvern, Pa.). The assay procedure follows (and is also available on the Reaction Biology Corp. website). • Base Reaction Buffer: 20 mM Hepes (pH 7.5), 10 mM MgCl2, 1 mM EGTA, • 0.02% Brij35, 0.02 mg/mL BSA, 0.1 mM Na3VO4, 2 mM DTT, 1% DMSO; • Substrate: 20 μM of myelin basic protein (MBP) and 10 μM ATP; • Protein kinase: ASK1/MAP3K5. • Reaction Procedure: • 1. Prepare indicated substrate in freshly prepared Base Reaction Buffer. • 2. Deliver any required cofactors to the substrate solution. • 3. Deliver indicated kinase into the substrate solution and gently mix. • 4. Deliver compounds in DMSO into the kinase reaction mixture by Acoustic; technology (Echo550; nanoliter range), incubate for 20 minutes at room temperature. • 5. Deliver ^33P-ATP (specific activity 10 μCi/μL) into the reaction mixture to initiate the reaction. • 6. Incubate kinase reaction for 2 hours at room temperature. • 7. Reactions are spotted onto P81 ion exchange paper. • 8. Detect kinase activity by filter-binding method.

Assay [1] deals with T2, ASK1 T838 auto phosphorylation (Homo sapiens, UniProt Q99683).
T2 construct: ASK1-V5 tagged full length plasmid; expressed in transfected cells; host or cells: HEK-293T
T2 sequence (Q99683 1-1374): T1 sequence (Q99683 1-1374)
The assay can be described thus: ASK1 (AUTO PHOS T838) assay in HEK-293T cells, MSD format. Format: cell-based. As to conditions: HEK-293T cells transfected with ASK1-V5, 1 hr compound incubation. As to the method:
ASK1 T838 auto phosphorylation was measured in HEK-293T cells using MSD assay format. HEK 293T cells were seeded in 15 cm plates at a density of 18 million cells and 20 mL DMEM with 10% FBS, Pen/Strep media. The plates were incubated at 37° C. overnight. Media on plates was changed to OPTI-MEM, serum free media and cells were transfected with 9 μg of ASK1-V5 tagged full length plasmid using Lipofectamine 2000 (Invitrogen) and the plates were incubated at 37° C. overnight. Cells were trypsinized, counted on Nexcellometer and plated into 96 well tissue culture plates with 100,000 cells/well and 200 μL media. Cells were incubated for 4 hr at 37° C. then ASK1 compounds were added using a HP 300e. Compounds were tested at 20 μM with 3 fold, 10 point dilution points then incubated for 1 hr at 37° C. A lysis buffer (Cell Signaling) was prepared with protease and phosphatase inhibitor and maintained at 4° C. until use. Media from cells was discarded and 120 μL of cold lysis buffer was added to the cells, the plate was shaken 4° C. for 1 hr. Lysate was mixed using Apricot liquid handler; aspirating up and down 16 times at high speed using 50 μL volume. 50 μL of cell lysates were transferred to a pre-coated MSD plates containing mouse anti-V5 antibody (1:500 dilution) and washed 3× with MSD wash buffer (TBST) and blocked with a 3% BSA solution. Plates were then incubated on a plate shaker overnight at 4° C. Plates were washed 3× with MSD wash buffer and 50 μL of rabbit anti-pASK1 T838 antibody was added to the wells and incubated for 2 hr at room temperature on a plate shaker. Plates were then washed and 50 μL of goat anti-rabbit sulfa-tag (1:500 dilution) was added to wells, and incubated for 1 hr at room temperature on a plate shaker. Plates were washed 3× and 150 μL of 2×MSD Read buffer was added to wells. Plates were immediately read on a MSD Instrument Reader where chemoluminecense signal was measured. Data was analyzed using Graph Pad or Genedata, the data was normalized and plotted, % activity versus log of compound concentration. The IC50 values were obtained from a 4 parameter fit.

Consider `C[C@@H]1CCCOc2ncc(Br)cc2C(=O)Nc2cccc(n2)-c2nncn21` (single isomer, unassigned) [Compound 2], for which the IC50 is 1000 to 10000 nM on ASK1/MAP3K5 (class symbols) and at least 10000 nM in assay [1]. With `C[C@@H]1CCCOc2ncccc2C(=O)Nc2cccc(n2)-c2nncn21` (single isomer, unassigned) [Compound 5], the results for the IC50 (at ASK1/MAP3K5 (class symbols); in assay [1]) were 1000 to 10000 nM and at least 10000 nM, respectively. On to `C[C@@H]1CN(c2cnc3c(c2)C(=O)Nc2cccc(n2)-c2nncn2[C@@H](C)CCCO3)CCN1C` (single isomer, unassigned) [Compound 12], for which the IC50 (at ASK1/MAP3K5 (class symbols); in assay [1] (class symbols)) was at most 100 nM throughout. With `C[C@H]1CN(c2cnc3c(c2)C(=O)Nc2cccc(n2)-c2nncn2[C@@H](C)CCCO3)CCN1C` (single isomer, unassigned) [Compound 13], the IC50 at ASK1/MAP3K5 (class symbols) is at most 100 nM; in assay [1] (class symbols), 100 to 1000 nM. For `Cc1cn(-c2cnc3c(c2)C(=O)Nc2cccc(n2)-c2nncn2[C@@H](C)CCCO3)cn1` (single isomer, unassigned) [Compound 30], the IC50 (at ASK1/MAP3K5 (class symbols); in assay [1] (class symbols)) was at most 100 nM in each case. Regarding `Cc1cncn1-c1cnc2c(c1)C(=O)Nc1cccc(n1)-c1nncn1[C@@H](C)CCCO2` (single isomer, unassigned) [Compound 31], the IC50 was at most 100 nM on ASK1/MAP3K5 (class symbols) and 100 to 1000 nM in assay [1] (class symbols).

For the compound `C[C@H]1CCCOc2ncc(-n3cnc(C4CC4)c3)cc2C(=O)Nc2cccc(n2)-c2nncn21` (single isomer, unassigned) [Compound 32], the IC50 (on ASK1/MAP3K5 (class symbols); in assay [1] (class symbols)) was at most 100 nM each time. In the case of `C[C@H]1CCCOc2ncc(-n3cncc3C3CC3)cc2C(=O)Nc2cccc(n2)-c2nncn21` (single isomer, unassigned) [Compound 33], the IC50 is at most 100 nM on ASK1/MAP3K5 (class symbols) and 100 to 1000 nM in assay [1] (class symbols). Take `C[C@@H]1CCCOc2ncc(C(F)(F)F)cc2C(=O)Nc2cccc(n2)-c2nncn21` (single isomer, unassigned) [Compound 42]: the IC50 (at ASK1/MAP3K5; in assay [1]) was at least 10000 nM in each case.

`C[C@@H]1CCCOc2ncc(N3CCOCC3)cc2C(=O)Nc2cccc(n2)-c2nncn21` [Compound 6, (R)-10-Methyl-5^5-morpholino-1^4H-6-oxa-3-aza-2(2,6),5(3,2)-dipyridina-1(3,4)-triazolacyclodecaphan-4-one] registered an IC50 in assay [1] (class symbols) of 1000 to 10000 nM. The same measure, in the same setting: then `C[C@H]1CCCOc2ncc(C3CCN(C)CC3)cc2C(=O)Nc2cccc(n2)-c2nncn21` [Compound 16, (S)-10-Methyl-5^5-(1-methylpiperidin-4-yl)-1^4H-6-oxa-3-aza-2(2,6),5(3,2)-dipyridina-1(3,4)-triazolacyclodecaphan-4-one], with at most 100 nM; and `C[C@@H]1CCCOc2ncc(-c3ccncc3)cc2C(=O)Nc2cccc(n2)-c2nncn21` [Compound 18, (R)-10-Methyl-5^5-(pyridin-4-yl)-1^4H-6-oxa-3-aza-2(2,6),5(3,2)-dipyridina-1(3,4)-triazolacyclodecaphan-4-one], with 1000 to 10000 nM.

For the compound `C[C@H]1CCCOc2ncc(-c3cncnc3)cc2C(=O)Nc2cccc(n2)-c2nncn21` [Compound 21, (S)-10-Methyl-5^5-(pyrimidin-5-yl)-1^4H-6-oxa-3-aza-2(2,6),5(3,2)-dipyridina-1(3,4)-triazolacyclodecaphan-4-one], on ASK1/MAP3K5 (class symbols), the IC50 is at most 100 nM. With `C[C@H]1CCCOc2ncc(-c3cnn(C)c3)cc2C(=O)Nc2cccc(n2)-c2nncn21` [Compound 26, (S)-10-Methyl-5^5-(1-methyl-1H-pyrazol-4-yl)-1^4H-6-oxa-3-aza-2(2,6),5(3,2)-dipyridina-1(3,4)-triazolacyclodecaphan-4-one], the IC50 in assay [1] (class symbols) is at most 100 nM. As for `Cc1cnn(-c2cnc3c(c2)C(=O)Nc2cccc(n2)-c2nncn2[C@@H](C)CCCO3)c1` [Compound 27, (S)-10-Methyl-5^5-(4-methyl-1H-pyrazol-1-yl)-1^4H-6-oxa-3-aza-2(2,6),5(3,2)-dipyridina-1(3,4)-triazolacyclodecaphan-4-one], the IC50 in assay [1] (class symbols) was 100 to 1000 nM. `C[C@H]1CCCOc2ncc(-n3ccc(C(F)(F)F)n3)cc2C(=O)Nc2cccc(n2)-c2nncn21` [Compound 29, (S)-10-Methyl-5^5-(3-(trifluoromethyl)-1H-pyrazol-1-yl)-1^4H-6-oxa-3-aza-2(2,6),5(3,2)-dipyridina-1(3,4)-triazolacyclodecaphan-4-one] returned a half-maximal inhibitory concentration (IC50) in assay [1] (class symbols) of 100 to 1000 nM. Same read-out and setting: then `C#Cc1cnc2c(c1)C(=O)Nc1cccc(n1)-c1nncn1[C@@H](C)CCCO2` [Compound 34, (S)-5^5-Ethynyl-10-methyl-1^4H-6-oxa-3-aza-2(2,6),5(3,2)-dipyridina-1(3,4)-triazolacyclodecaphan-4-one], with 100 to 1000 nM; and `C[C@H]1CCCOc2ncc(C#CC3CC3)cc2C(=O)Nc2cccc(n2)-c2nncn21` [Compound 35, (S)-5^5-(Cyclopropylethynyl)-10-methyl-1^4H-6-oxa-3-aza-2(2,6),5(3,2)-dipyridina-1(3,4)-triazolacyclodecaphan-4-one], with 100 to 1000 nM; and `C[C@H]1CCCOc2ncc(C3CC3)cc2C(=O)Nc2cccc(n2)-c2nncn21` [Compound 36, (S)-5^5-Cyclopropyl-10-methyl-1^4H-6-oxa-3-aza-2(2,6),5(3,2)-dipyridina-1(3,4)-triazolacyclodecaphan-4-one], with 100 to 1000 nM.

In assay [1] (class symbols), `C[C@H]1CCCOc2ncc(S(C)(=O)=O)cc2C(=O)Nc2cccc(n2)-c2nncn21` [Compound 43, (S)-10-Methyl-5^5-(methylsulfonyl)-1^4H-6-oxa-3-aza-2(2,6),5(3,2)-dipyridina-1(3,4)-triazolacyclodecaphan-4-one] had an IC50 of 100 to 1000 nM.
